This is an account of results in patent publication US10702527B2, “Combination therapy of transcription inhibitors and kinase inhibitors” (Dana-Farber Cancer Institute, Inc., priority 2015, dated 2020).

Entries after “also recorded” stand apart in the source; their conditions may differ.

The test system of experiment [1] is PC9 cells. As to the kind of experiment: Apoptosis/cell death analysis (Annexin V/PI flow cytometry) in PC9 cells. The format is cell-based. Conditions: 48 hours; erlotinib 1 μM; compared to PC9 cells with control RNA guide. How it is done: 100,000 cells were seeded in 6-well plates, allowed to adhere overnight, and then incubated with media containing vehicle or drug as indicated for 24 or 48 hours. Cell death was quantified using the Alexa Fluor 488 Annexin V/Dead Cell Apoptosis kit for flow cytometry (Invitrogen), according to the manufacturer's protocol. All conditions were assayed in triplicate. Data were acquired using a BD LSRFortessa X-20 (BD Biosciences), and analyzed in FlowJo.
In general terms: A flow cytometer gives signals particle by particle.

Experiment [2] concerns signaling pathways in PC9 cells. Description: Western blot / immunoblot of signaling pathways in PC9 cells. The format is cell-based. Conditions: 24 hours, erlotinib 1 μM, THZ1 100 nM, alone or combined. On the procedure:
Cells were lysed in RIPA buffer (Roche) containing protease inhibitors (Roche) and Phosphatase Inhibitor Cocktails I and II (CalBioChem). Protein concentrations were determined using a Bradford assay (Bio-Rad). Proteins were separated by SDS gel electrophoresis using NuPAGE 4-12% Bis-Tris gels (Life Technologies) in MOPS buffer. Resolved protein was transferred to nitrocellulose membranes, blocked in 10% milk and probed with primary antibodies recognizing EGFR (2232S), p-EGFR (2234S), FGFR3 (4574S), p-FGFR (3471S), HER2/ERBB2 (2165), p-ERBB2 (2243S), STAT1 (9172), p-STAT1 (9167), STAT3 (4904S), p-STAT3 (9145S), AKT (9272S), p-AKT (4060P), ERK (4695S), p-ERK (4370S), FRA1 (5281S), CDK12 (11973) (all from Cell Signaling Technology), CDK7 (sc-723, Santa Cruz), actin (A5441, Sigma-Aldrich) and vinculin (V9131, Sigma-Aldrich) in 5% milk or 3% bovine serum albumin as recommended by the manufacturer. After incubation with the appropriate secondary antibody (Pierce anti-mouse IgG/IgM (31444, Thermo Scientific) and anti-rabbit IgG (31460, Thermo Scientific)), blots were imaged on film.
Western blots were used to characterize the signaling pathways in selected cell lines. The assays were performed at 24 hours under the following conditions: untreated, treated with 1 μM erlotinib, treated with 100 nM THZ1, or treated with a combination of erlotinib and THZ1, in PC9 and RT112 cells. These doses were also used in the colony formation assays and the RNAseq and ChIPseq experiments. […] However, it could be blocking the activation of downstream STAT3 targets. […] FGFR is known to be a bypass mechanism in PC9, but this was not seen with THZ1 treatment or with the combination treatment. […] This is unexpected, given that THZ1 should block CDK7-mediated RNAPII phosphorylation. This may be due to the dose or the time point assayed.

The test system of experiment [3] is IL-6. As to the kind of experiment: IL-6 in PC9 cell culture supernatants (Luminex cytokine assay, ELISA). The format is cell-based. The following applies: PC9 cells; erlotinib 1 μM, THZ1 100 nM; 24 and 72 hours. On the procedure: A Luminex Multiplex Custom Cytokine assay was used to assay cytokines in RT112 and PC9 cell culture supernatants treated with vehicle, 1 μM BGJ398 or erlotinib respectively, 100 nM THZ1, or THZ1 in combination with BGJ398 or erlotinib, at 24 and 72 hours. Cytokines assayed for were: CCL2/MCP-1, CCL5/RANTES, CXLC5, IL-1 alpha and beta, IL-2, IL-4, IL-5, IL-6, IL-8, IL-10, IL-17a, GM-CSF, TNF-alpha, VEGF, INF-gamma. IL-6 was also assayed in cell culture supernatants using the Quantikine IL-6 ELISA kit (D6050, R&D Systems) as per the manufacturer's protocol.
A general note: An ELISA detects its analyte on a solid surface through an enzyme-linked reagent.

The test system of experiment [4] is H3K27Ac enhancer signal in PC9 cells. Description: H3K27Ac ChIP-Seq in PC9 cells. Format: cell-based, human. The following applies: seven days of treatment, vs DMSO.
Procedure: RT112 and PC9 cells treated for seven days with vehicle, 1 μM BGJ398 and erlotinib (respectively), 100 nM THZ1, or BGJ398/erlotinib in combination with THZ1. H3K27Ac ChIP-Seq was performed using Abcam antibody (cat # AB4729, lot # GR183922-1) as previously described,^8 with minor modifications (cells were crosslinked for 20 min, Dynal magnetic beads (Sigma) were bound with 10 μg of the indicated antibody).
All ChIP-Seq data sets were aligned using bowtie 1.0.1 to build NCBI36/hg19 of the human genome with -p 4—best -k 2 -m 2—sam -1 40. Wiggle files for gene tracks were created using Macs 1.4.2 with options -w -S -space=50 to count reads in 50 bp bins.
Regions enriched in H3K27Ac were identified using SICER^51 with corresponding input DNA control, and parameters -t 1 (max 1 read per position), -w 200 (window size 200), -i 150 (fragment size), -g 200 (gap size 200; 1 window), -t 0.74 (interrogable genome fraction), -e 200 (e-value), -p 1e-9 (significance p value cutoff). […]
Density of H3K27Ac ChIP-Seq signal (FIG. 51F) was calculated using bamToGFF (github.com/BradnerLab/pipeline). Islands of H3K27Ac identified in RT112 BGJ398-treated cells or PC9 erlotinib-treated cells were treated as one bin (-m 1), reads were extended to be 200 bp (default) and the reads-per-million (-r) normalized density (-d) of reads was calculated therein.
Experiment [5] concerns gene expression in PC9 cells. As to the kind of experiment: RNA-Seq gene expression in PC9 cells.
Procedure: RNA was isolated from untreated RT112 cells and RT112 cells treated with 1 μM BGJ398, 100 nM THZ1, or combination treatment with THZ1 plus BGJ398, and similarly, untreated PC9 cells and PC9 cells treated with 1 μM erlotinib, 100 nM THZ1, or THZ1 plus erlotinib. Both cell lines were harvested at two time-points: following one day or seven days of treatment. Cell number was determined and total RNA was isolated using the RNeasy micro kit (Qiagen). Ambion® ERCC RNA Spike-In Mix (Life technology) was added to total RNA. cDNA libraries were prepared using the NEBNext® Ultra™ RNA Library Prep Kit for Illumina (New England Biolabs) according to the manufacturer's instructions. Library integrity was assessed on an Agilent 2100 Bioanalyzer (Agilent). Sequencing was performed on the Hiseq 2000 platform (Illumina) to a minimum depth of 30 million reads per sample.
QC-passed reads were aligned to the human reference genome (hg19) using PRADA.^46 Transcript per million (TPM) values were determined using RSEM.^47 TPM values were normalized with the voom transformation.^48 Expression changes for each gene in treated cells compared to untreated controls was determined using the limma package^49 as log 2-transformed fold change and a multiple-testing adjusted p-value. Heatmap visualization was performed using R. Log 2-transformed fold changes were not scaled and were colored on a blue-red scale.
Differentially expressed genes (defined as log 2-fold change value greater than 1.5 or less than −1.5, and p-value less than 0.01) were input into Ingenuity Pathway Analysis (www.ingenuity.com), to identify a) enriched pathways, 2) upstream regulators, andd 3) downstream effectors. […] We considered an activation z-score of greater than [2] to be activated, and less than [−2] to be inhibited. Gene ontology term (GO-term) enrichment analysis was performed using the Database for Annotation, Visualization and Integrated Discovery (DAVID) v6.7 (david.abcc.ncifcrf.gov/).
The test system of experiment [6] is RT112 bladder carcinoma cells (FGFR3-dependent). Description: Colony formation assay in RT112 cells. The format is cell-based, human. From the text:
Media (and drug) were replaced weekly.

For experiment [7], the system named is PC9 cells (EGFR-dependent NSCLC). As to the kind of experiment: Colony formation assay in PC9 cells. The format is cell-based. The following applies: 4 weeks, compared to THZ1 (FIG. 55B).
The subject of experiment [8] is HER-2 dependent models. The following applies: cited from earlier work.

With `C#Cc1cccc(Nc2ncnc3cc(OCCOC)c(OCCOC)cc23)c1` [erlotinib], the “sensitivity to erlotinib (cell death) of CDK7 and CDK12-deficient PC9 cells” value in experiment [1] was “enhanced sensitivity to erlotinib”. Moreover, in experiment [2], the FGFR activation result was “is activated; also recorded: activation of FGFR was also observed” and the “p-STAT3 (STAT3 phosphorylation/activation)” value is “increases”. Further, the “IL-6 levels in cell culture supernatants” value in experiment [3] is given as “significantly increased”. In addition, the “H3K27Ac ChIP-Seq signal at enhancers” value in experiment [4] is reported as “significant increase in H3K27Ac signal”. In experiment [5] (erlotinib 1 μM, THZ1 100 nM, one or seven days), the “gene expression (transcriptional programs) by RNAseq” value was “transcriptionally distinct form the parental population; also recorded: up-regulated the expression of genes involved in pro-survival programs”. Also, the “gene expression of the top 200 up-regulated genes with erlotinib treatment” value in experiment [5] (log2-normalized FPKM, two-tailed t-test) is on record as “significant increase in gene expression”.

Take `Cc1sc2c(c1C)C(c1ccc(Cl)cc1)=N[C@@H](CC(=O)OC(C)(C)C)c1nnc(C)n1-2` [JQ1]: the “enhancement of sensitivity to BGJ398 (colony formation)” value in experiment [6] (4 weeks, compared to THZ1 (FIG. 55D)) was “did enhance sensitivity to BGJ398 in RT112, although less so than THZ1”. For the same molecule, the “colony formation, transcription inhibitor alone or in combination with BGJ398” value in experiment [6] (one week, 24-well plate (FIG. 35)) was “modest results, even in combination”. Besides, the “enhancement of sensitivity to erlotinib (colony formation)” value in experiment [7] was “did not enhance sensitivity to erlotinib”. Also, the sensitivity to lapatinib entry in experiment [8] is given as “enhance sensitivity to lapatinib”.
